Measured values as given in ChEMBL document CHEMBL1201862, “PubChem BioAssay data set” (2004).
Calls of active or inactive are those of the source.

Key:
[1] = biological target: T1, Tyrosine-protein phosphatase non-receptor type 7 (Homo sapiens, UniProt P35236); format: functional
T1 sequence (P35236 whole entry): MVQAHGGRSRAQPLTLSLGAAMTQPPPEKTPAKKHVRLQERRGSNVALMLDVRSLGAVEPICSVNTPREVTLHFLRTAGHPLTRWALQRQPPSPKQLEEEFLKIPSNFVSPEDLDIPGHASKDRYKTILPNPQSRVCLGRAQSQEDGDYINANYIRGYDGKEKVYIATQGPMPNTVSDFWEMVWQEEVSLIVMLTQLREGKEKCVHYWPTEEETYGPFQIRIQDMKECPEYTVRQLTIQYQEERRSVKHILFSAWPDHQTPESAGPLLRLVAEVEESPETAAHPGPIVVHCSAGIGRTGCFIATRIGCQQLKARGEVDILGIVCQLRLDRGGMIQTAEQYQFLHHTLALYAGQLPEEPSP

Nonstructural protein 1 = Nonstructural protein 1 (Influenza A virus, UniProt Q194T2); format: functional, Influenza A virus (A/California/07/2009(H1N1))
Sequence of Nonstructural protein 1 (Q194T2 whole entry): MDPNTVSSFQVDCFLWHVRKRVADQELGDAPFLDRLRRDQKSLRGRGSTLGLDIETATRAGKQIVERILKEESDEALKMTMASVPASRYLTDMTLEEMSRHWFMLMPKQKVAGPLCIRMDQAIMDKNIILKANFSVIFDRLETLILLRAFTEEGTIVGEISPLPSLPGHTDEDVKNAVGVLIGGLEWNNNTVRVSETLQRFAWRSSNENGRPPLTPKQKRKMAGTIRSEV

Row | Compound | IC50 [1] | IC50 (Nonstructural protein 1)
1 | O=C(O)c1cccc(-n2cccc2/C=C2/NC(=O)N(c3ccc(Cl)cc3)C2=O)c1 | 4.89 µM (active) | –
2 | O=S(=O)(O)c1cc(Cl)cc(N=Nc2ccc(O)cc2O)c1O | – | 8.3 µM (active)
